We go through 3 compounds from BindingDB's records for doi:10.7270/Q22Z140X (Burnham Center For Chemical Genomics, 2010).

For orientation: IC50 means the concentration at which inhibition is half-maximal.

In this experiment the target is T1, NACHT, LRR and PYD domains-containing protein 1 (Homo sapiens, UniProt Q9C000).
T1 sequence (Q9C000 whole entry): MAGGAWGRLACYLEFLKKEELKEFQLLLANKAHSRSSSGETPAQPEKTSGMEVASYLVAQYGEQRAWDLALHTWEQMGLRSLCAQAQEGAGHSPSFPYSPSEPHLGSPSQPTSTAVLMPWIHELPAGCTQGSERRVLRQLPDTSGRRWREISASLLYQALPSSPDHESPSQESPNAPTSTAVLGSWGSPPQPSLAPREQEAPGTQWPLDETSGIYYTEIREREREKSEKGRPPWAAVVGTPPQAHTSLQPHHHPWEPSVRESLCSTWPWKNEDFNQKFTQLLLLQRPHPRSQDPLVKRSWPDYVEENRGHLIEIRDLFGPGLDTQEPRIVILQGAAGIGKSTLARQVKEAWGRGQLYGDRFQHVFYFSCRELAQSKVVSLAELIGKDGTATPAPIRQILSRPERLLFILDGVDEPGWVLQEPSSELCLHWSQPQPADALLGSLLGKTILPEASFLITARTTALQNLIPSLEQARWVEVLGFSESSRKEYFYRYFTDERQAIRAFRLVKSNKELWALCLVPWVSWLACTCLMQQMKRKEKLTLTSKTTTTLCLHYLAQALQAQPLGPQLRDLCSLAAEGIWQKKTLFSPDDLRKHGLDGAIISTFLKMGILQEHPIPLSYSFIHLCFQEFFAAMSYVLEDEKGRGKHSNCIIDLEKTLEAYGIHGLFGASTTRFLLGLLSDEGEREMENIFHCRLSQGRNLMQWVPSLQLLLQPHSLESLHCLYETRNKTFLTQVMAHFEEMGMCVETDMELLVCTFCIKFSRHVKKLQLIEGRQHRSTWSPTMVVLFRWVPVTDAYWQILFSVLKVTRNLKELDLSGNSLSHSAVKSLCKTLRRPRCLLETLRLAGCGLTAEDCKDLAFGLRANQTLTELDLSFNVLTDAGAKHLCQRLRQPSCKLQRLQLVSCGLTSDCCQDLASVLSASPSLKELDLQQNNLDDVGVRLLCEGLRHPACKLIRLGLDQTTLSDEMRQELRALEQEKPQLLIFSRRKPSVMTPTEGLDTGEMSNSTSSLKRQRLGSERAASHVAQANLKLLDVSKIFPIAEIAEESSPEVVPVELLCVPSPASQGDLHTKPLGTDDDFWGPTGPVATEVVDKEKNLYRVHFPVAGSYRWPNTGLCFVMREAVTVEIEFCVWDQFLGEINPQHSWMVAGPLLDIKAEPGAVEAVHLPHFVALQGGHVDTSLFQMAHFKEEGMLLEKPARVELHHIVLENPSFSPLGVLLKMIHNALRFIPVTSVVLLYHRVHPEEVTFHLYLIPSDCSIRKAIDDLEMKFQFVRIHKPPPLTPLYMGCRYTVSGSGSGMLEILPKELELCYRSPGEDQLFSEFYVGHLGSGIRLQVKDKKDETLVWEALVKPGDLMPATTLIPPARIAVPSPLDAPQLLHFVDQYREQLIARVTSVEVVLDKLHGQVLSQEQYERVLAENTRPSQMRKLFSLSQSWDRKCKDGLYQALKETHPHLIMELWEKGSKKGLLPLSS
The experiment is described as follows: NALP1 inhibitors in yeast, dose response, luminescent (AID 488860).
Consider `Oc1cc(Sc2nnnn2-c2ccccc2)c(O)n1-c1cccc(Cl)c1`, for which the IC50 worked out at 5.83 µM.

`Cc1ccc(-n2c(O)cc(Sc3ccccc3C(=O)O)c2O)cc1` showed a concentration for half-maximal inhibition (IC50) of 34.4 µM.

Compound `COc1ccccc1-n1c(O)c2c(c1O)CC(c1ccccc1)CC2` (stereo not drawn) had an IC50 of more than 100 µM.
